The source of these data is ChEMBL document CHEMBL5338711, “Designing and development of phthalimides as potent anti-tubulin hybrid molecules against malaria” (Eur J Med Chem, 2022).

The subject of series [1] is Plasmodium falciparum. As to the kind of experiment: Antiplasmodial activity against Plasmodium falciparum 3D7. Type of series: functional, organism-based.
Series [2] in a line: Cytotoxicity against human HepG2 cells. Type of series: toxicity, cell-based.
The subject of series [3] is Plasmodium falciparum. As to the kind of experiment: Antimalarial activity against […] infected in human RBC assessed as inhibition of plasmodial growth at 1 uM by SYBR green dye based spectrofluorometric analysis relative to control. Type of series: functional. Particulars: 3D7, Erythrocyte.
In series [4] the test system is Plasmodium falciparum. The series is described as follows: Antimalarial activity against […] infected in human RBC assessed as inhibition of plasmodial growth at 10 uM by SYBR green dye based spectrofluorometric analysis relative to control. Type of series: functional. Particulars: 3D7, Erythrocyte.
For series [5], the system named is Plasmodium falciparum. The series is described as follows: Antimalarial activity against chloroquine-sensitive synchronized late stage trophozoite Plasmodium falciparum 3D7 infected in human RBC assessed as inhibition of plasmodial growth by giemsa staining based analysis. The series is classed as functional, organism-based. The conditions noted are these: 3D7, Erythrocyte.

For series [6], the system named is Plasmodium falciparum. As to the kind of experiment: Antimalarial activity against chloroquine-resistant synchronized late stage trophozoite Plasmodium falciparum RKL-9 infected in human RBC assessed as inhibition of plasmodial growth by giemsa staining based analysis. The series is classed as functional, organism-based. Particulars: RKL-9, Erythrocyte.
Series [7] deals with Plasmodium falciparum. As to the kind of experiment: Antimalarial activity against chloroquine-resistant Plasmodium falciparum RKL-9 infected in human RBC assessed as reduction of plasmodial growth by SYBR green dye based spectrofluorometric analysis. The series is classed as functional, organism-based.
In another series the test system is Erythrocyte. As to the kind of experiment: Hemolytic activity in human RBC assessed as hemolysis upto 5 uM incubated for 2 hrs. Type of series: toxicity, cell-based.
The nature of series [8]: Therapeutic index, ratio of CC50 for human HepG2 cells to IC50 for chloroquine-sensitive synchronized late stage trophozoite Plasmodium falciparum 3D7 infected in human RBC. Type of series: toxicity. The conditions noted are these: read-out: TI.
Series [9] in a line: Cytotoxicity against […] cell upto 500 uM. Type of series: toxicity, cell-based. Particulars: human.
Series [10] relates to Plasmodium falciparum. As to the kind of experiment: Antiplasmodial activity against synchronized ring stage Plasmodium falciparum 3D7 infected in human RBC assessed as reduction in parasitemia percentage by measuring defect in invasion stage at IC50 concentration measured after 60 hrs by giemsa staining based light microscopic analysis. The series is classed as functional, organism-based.

Series [11] has as its system Plasmodium falciparum. The series is described as follows: Antiplasmodial activity against synchronized ring stage Plasmodium falciparum 3D7 infected in human RBC assessed as reduction in parasitemia percentage by measuring defect in egress stage at IC50 concentration measured after 60 hrs by giemsa staining based light microscopic analysis. Type of series: functional, organism-based.

Series [12] concerns Plasmodium falciparum. The series is described as follows: Induction of mitochondrial membrane depolarization in trophozoite stage Plasmodium falciparum 3D7 infected in human RBC assessed as increase in green fluorescence at IC50 concentration incubated for 3 hrs by JC-1 dye based fluorescence microscopic analysis. The series is classed as functional, organism-based.
Series [13] deals with Plasmodium falciparum. The series is described as follows: Induction of mitochondrial membrane depolarization in trophozoite stage Plasmodium falciparum 3D7 infected in human RBC assessed as decrease in red to green fluorescence ratio at IC50 concentration incubated for 3 hrs by JC-1 dye based fluorescence microscopic analysis. Type of series: functional, organism-based.
Series [14] concerns Plasmodium falciparum. As to the kind of experiment: Induction of mitochondrial membrane depolarization in trophozoite stage Plasmodium falciparum 3D7 infected in human RBC assessed as red to green fluorescence ratio at IC50 concentration incubated for 3 hrs by JC-1 dye based spectrofluorometric analysis (reference value: 6.96+/-0.94). Type of series: functional.
In series [15] the test system is Plasmodium falciparum. The series is described as follows: Synergistic antimalarial activity against synchronized ring stage Plasmodium falciparum 3D7 infected in human RBC assessed as mean fractional inhibitory concentration at 2:3 ratio of ART to compound incubated for 72 hrs by giemsa staining based flow cytometric analysis. Type of series: functional. On the technique in general: In flow cytometry, cells or beads pass a laser one at a time.

Series [16] has as its system Plasmodium falciparum. The series is described as follows: Synergistic antimalarial activity against synchronized ring stage Plasmodium falciparum 3D7 infected in human RBC assessed as mean fractional inhibitory concentration at 1:4 ratio of ART to compound incubated for 72 hrs by giemsa staining based flow cytometric analysis. The series is classed as functional.
Series [17] deals with Plasmodium falciparum. As to the kind of experiment: Binding affinity to recombinant N-terminal 6His tagged Plasmodium falciparum alpha-1 tubulin expressed in Escherichia coli BL21 assessed as dissociation constant at 0.78 to 75 uM by SPR analysis. The conditions noted are these: dose 0.78-75 µM. Background: In SPR one partner is held on a chip, and binding of the other changes the refractive index at the surface.

Series [18] relates to Plasmodium falciparum. As to the kind of experiment: Binding affinity to recombinant N-terminal 6His tagged Plasmodium falciparum beta-tubulin expressed in Escherichia coli BL21 at 0.78 to 75 uM by SPR analysis. The conditions noted are these: dose 0.78-75 µM.
Series [19] has as its system Plasmodium falciparum. As to the kind of experiment: Binding affinity to recombinant N-terminal 6His tagged Plasmodium falciparum alpha-1 tubulin expressed in Escherichia coli BL21 assessed as thermo-stabilization incubated at 4 to 80 degreeC for 3 mins followed by 5 mins incubation at room temperature by thermal shift assay. Particulars: time 8.0 min.
Series [20] has as its system Plasmodium berghei. The series is described as follows: Antimalarial activity against Plasmodium berghei ANKA in BALB/c mouse injected with parasite infected erythrocytes assessed as decrease in parasite load at 30 mg/kg, ip administered daily for 7 days relative to control. The series is classed as functional. Set-up: scale not given: the % may be the effect or the level left. The conditions noted are these: time 7 day.

In series [21] the test system is Plasmodium berghei. The series is described as follows: Antimalarial activity against Plasmodium berghei ANKA in BALB/c mouse injected with parasite infected erythrocytes assessed as reduction in parasitemia at 30 mg/kg, ip administered daily for 7 days and measured after 15 days. Type of series: functional, organism-based. Particulars: time 15.0 day.
Series [22] relates to Plasmodium berghei. The series is described as follows: Antimalarial activity against Plasmodium berghei ANKA in BALB/c mouse injected with parasite infected erythrocytes assessed as […] mean survival time at 30 mg/kg, ip administered daily for 7 days and measured after 15 days. Particulars: time 15 day. Type of series: functional.
Series [23] deals with Plasmodium falciparum. As to the kind of experiment: Antiplasmodial activity against […] incubated for 90 hrs by SYBR green I dye based analysis. The series is classed as functional, organism-based. The conditions noted are these: 3D7, 90 h.
Series [24] in a line: Cytotoxicity against human U-937 cells assessed as reduction in cell viability incubated for 24 hrs by MTT assay. The series is classed as toxicity, cell-based. A general note: Tetrazolium dyes change colour on reduction, which living cells bring about.
Series [25] relates to Plasmodium falciparum. The series is described as follows: Antiplasmodial activity against synchronized ring stage Plasmodium falciparum 3D7 infected in human RBC assessed as reduction in transformation into pyknotic trophozoites by measuring delay in ring maturation at IC50 concentration measured after 60 hrs by giemsa staining based light microscopic analysis. Type of series: functional, organism-based.

The test system of series [26] is Plasmodium falciparum. As to the kind of experiment: Synergistic antimalarial activity against synchronized ring stage Plasmodium falciparum 3D7 infected in human RBC assessed as mean fractional inhibitory concentration at 1:1 ratio of ART to compound incubated for 72 hrs by giemsa staining based flow cytometric analysis. Type of series: functional.

Activity calls are given as the source filed them. The calls are words filed in the database; no cut-off is given here. Bounds are passed on as bounds.

The IC50 is the concentration needed to halve the response being measured. Usually inhibition stands for the relative decrease from the control value, in per cent. Turning to `Cc1ccc2c(c1)C(=O)N([C@H](CC(C)C)c1nc3ccccc3n1Cc1cn(-c3ccc(Cl)cc3)nn1)C2=O`, the concentration for half-maximal inhibition (IC50) is 0.64 µM in the series with Plasmodium falciparum [1], > 100 µM in series [2], 0.74 µM in the series with Plasmodium falciparum [5] and 1.71 µM with Plasmodium falciparum [6]. Besides, the inhibition at 1 µM in the series on Plasmodium falciparum [3] was 43%. The inhibition at 10 µM with Plasmodium falciparum [4] came out at 73%. For the same compound, the Activity result was “Dose dependent effect” with Plasmodium falciparum [7]; “Non-Toxic” in the series on Erythrocyte; “Non-Toxic” in [9]; 4.62 in the series with Plasmodium falciparum [14]; 3.6% in the series on Plasmodium berghei [20]. Besides, the selectivity ratio in [8] is > 135. Besides, the result in the series on Plasmodium falciparum [10], in the series with Plasmodium falciparum [11], in the series on Plasmodium falciparum [12], with Plasmodium falciparum [13], in the series with Plasmodium falciparum [19] and in the series with Plasmodium berghei [21] was Active. Further, the FIC stood at 0.87 in the series on Plasmodium falciparum [15] and 0.98 with Plasmodium falciparum [16]. The result in the series with Plasmodium falciparum [17] and in the series on Plasmodium falciparum [18] was inactive. In addition, the MST with Plasmodium berghei [22] worked out at 11.07 days.

In the case of `CCC(C)[C@H](c1nc2ccccc2n1Cc1cn(-c2c(F)c(F)c(F)c(F)c2F)nn1)N1C(=O)c2ccc(C)cc2C1=O` (some centres undefined), the inhibition at 1 µM in the series with Plasmodium falciparum [3] is -4%. Besides, the inhibition at 10 µM in the series on Plasmodium falciparum [4] was 95%.

In the case of `CC(C)[C@H](c1nc2ccccc2n1Cc1cn(-c2ccc(F)cc2F)nn1)N1C(=O)c2ccccc2C1=O`, in the series on Plasmodium falciparum [3], the inhibition at 1 µM was -12%. Also, in the series on Plasmodium falciparum [4], the inhibition at 10 µM turned out to be 88%.

Consider `CCC(C)[C@H](c1nc2ccccc2n1Cc1cn(-c2ccc(F)cc2F)nn1)N1C(=O)c2ccc(C)cc2C1=O` (some centres undefined), for which the inhibition at 1 µM in the series on Plasmodium falciparum [3] was 21%. Moreover, the inhibition at 10 µM with Plasmodium falciparum [4] turned out to be 94%.

The CC50 is the concentration that lowers cell viability or growth by half. As for `CC(C)C(c1nc2ccccc2n1Cc1cn(-c2ccc(F)cc2)nn1)N1C(=O)c2ccccc2C1=O` (centres undefined), the half-maximal inhibitory concentration (IC50) in the series on Plasmodium falciparum [23] amounted to 3.5 µM. Also, in [24], the half-maximal cytotoxic concentration (CC50) at 24 h turned out to be 0.78 µM.

As for `CCC(C)[C@H](c1nc2ccccc2n1Cc1cn(Cc2ccccc2)nn1)N1C(=O)c2ccccc2C1=O` (some centres undefined), the half-inhibitory concentration (IC50) in series [2] was > 100 µM; in the series on Plasmodium falciparum [5], 0.81 µM; in the series with Plasmodium falciparum [6], 1.88 µM. Moreover, the inhibition at 1 µM with Plasmodium falciparum [3] was determined as 35%. Moreover, the inhibition at 10 µM in the series on Plasmodium falciparum [4] was found to be 66%. Moreover, the Activity result in the series on Plasmodium falciparum [7] is “Dose dependent effect”; in the series with Erythrocyte, “Non-Toxic”; in series [9] it was “Non-Toxic”. The selectivity ratio in series [8] stood at 123. The outcome in the series with Plasmodium falciparum [25], in the series on Plasmodium falciparum [12] and in the series with Plasmodium falciparum [13] was Active. Also, the FIC in the series with Plasmodium falciparum [16] came to 0.67.

In the series with Plasmodium falciparum [23], `CC(C)CC(c1nc2ccccc2n1Cc1cn(-c2ccccc2)nn1)N1C(=O)c2ccccc2C1=O` (centres undefined) registered an IC50 of 0.9 µM. Moreover, the CC50 at 24 h in series [24] came to 0.91 µM.

On to `Cc1ccc(-n2cc(Cn3c([C@@H](CC(C)C)N4C(=O)c5ccc(C)cc5C4=O)nc4ccccc43)nn2)cc1`, for which the inhibition at 1 µM in the series with Plasmodium falciparum [3] was -8.63%. For the same compound, in the series on Plasmodium falciparum [4], the inhibition at 10 µM is 68.9%.

In the case of `CCC(C)[C@H](c1nc2ccccc2n1Cc1cn(-c2ccccc2F)nn1)N1C(=O)c2ccccc2C1=O` (some centres undefined), the inhibition at 1 µM in the series on Plasmodium falciparum [3] came out at 8%. For the same compound, in the series with Plasmodium falciparum [4], the inhibition at 10 µM was found to be 87%.

On to `CC(C)[C@H](c1nc2ccccc2n1Cc1cn(-c2ccc(C(F)(F)F)cc2)nn1)N1C(=O)c2ccccc2C1=O`, for which the IC50 is > 100 µM in series [2], 2.3 µM in the series with Plasmodium falciparum [5] and 3.92 µM in the series with Plasmodium falciparum [6]. Also, in the series with Plasmodium falciparum [3], the inhibition at 1 µM amounted to 22%. In addition, the inhibition at 10 µM in the series with Plasmodium falciparum [4] worked out at 75%. The Activity result with Plasmodium falciparum [7] is “Dose dependent effect”; with Erythrocyte it was “Non-Toxic”; in [9], “Non-Toxic”; with Plasmodium falciparum [14], 5.06; in the series with Plasmodium berghei [20], 3.9%. In series [8], the selectivity ratio was 43. The outcome with Plasmodium falciparum [25], with Plasmodium falciparum [12], in the series on Plasmodium falciparum [13] and in the series with Plasmodium berghei [21] was Active. Besides, the FIC with Plasmodium falciparum [26] is reported as 0.93. In addition, the MST in the series on Plasmodium berghei [22] was determined as 10.47 days.

Turning to `Cc1ccc2c(c1)C(=O)N([C@H](CC(C)C)c1nc3ccccc3n1Cc1cn(-c3ccc(F)cc3)nn1)C2=O`, the inhibition at 1 µM with Plasmodium falciparum [3] turned out to be 0.3%. Further, the inhibition at 10 µM with Plasmodium falciparum [4] turned out to be 46%.
